The record followed here is patent US20160130554A1, “Reprogramming Mesenchymal Stromal Cells Into Hematopoietic Cells” (Wake Forest University Health Sciences, priority 2014, published 2016).

The test system of experiment [1] is SIPs. Put plainly: In vitro reprogramming of SIPs, flow cytometry for hematopoietic surface markers. Type of experiment: cell-based, human. Conditions: the two small molecules alone, without RUNX1C. The source says:
Heparinized human BM was obtained from healthy donors after informed consent, according to guidelines from the Office of Human Research Protection at the University of Nevada at Reno, Wake Forest Health Sciences, or from commercially available sources (AllCells, LLC, Alameda Calif.). Low density BM mononuclear cells (BMNC) were separated by Ficoll density gradient (1.077 g/ml Sigma, St. Louis, Mo.) and washed twice in Iscove's modified Dulbecco's medium (Invitrogen, Carlsbad, Calif.). Stro-1+ MSC were then isolated using anti-Stro-1 antibody (R&D Systems, Minneapolis, Minn.) and magnetic bead cell sorting (Miltenyi Biotec, Inc., Auburn, Calif.) according to manufacturer's guidelines. Stro-1+ cells were then cultured at low density in 0.02% gelatin (Sigma, St Louis, Mo.) coated flasks using Mesenchymal Stem Cell Growth Medium (MSCGM™, Lonza, Walkersville, Md.) in a humidified 37° C. incubator at 5% CO2.
BM-MSC were transduced on 6-well plates with Oct4- or RUNX1C-encoding lentiviral vector, alone or in combination (or an eGFP-encoding lentiviral vector as a control), at a multiplicity of infection (MOI) of 50 for each vector. Twenty four hours after transduction, the vector-containing media was removed and replaced with fresh MSCGM™ (Lonza). […]

The subject of experiment [2] is SIPs. The experiment is described as follows: Culture conditions for reprogramming of SIPs (data not shown). The format is cell-based, human. Conditions: the two factors alone, preliminary studies. From the text:
Cultures may be performed in defined serum-free media. This will to facilitate clinical grade production of hematopoietic cells. SIPS ([…]) may be plated in 100 mm gelatin-coated culture plates using serum-free TheraPEAK® MSCGM-CD Mesenchymal Stem Cell Medium (Lonza). Sixteen hours later they may be transduced overnight with the lentivector encoding RUNX1c at an MOI of ˜10. A control group may be transduced with an identical lentivector expressing EGFP to judge transduction efficiency (usually ˜80-90%) and to assess the precision of the cumate “switch”. The following day, the medium may be changed to DMEM/F12/+20% KOSR/1×NEAA/0.1 mM 2-ME/containing rhFGF2 (20 ng/ml) and rhIGFII (30 ng/ml). […] At the same time, media may be supplemented with cumate to turn on expression of RUNX1c (or EGFP) and with VPA (1 mM final concentration) and Bix-01294 (2 μM final concentration).
In order to facilitate differentiation of the HSC into all lineages or into hematopoietic cells having good engraftment potential, additional growth factors, such as TPO and BMP4, may be incorporated into the culture medium. […]

Regarding `CCCC(CCC)C(=O)O` [VPA, valproic acid], in the experiment with SIPs [1], the “expression of CD41 or CD34” value is given as “did not induce significant expression”.

Turning to “rhFGF2: recombinant human FGF2 medium supplement”, the “reprogramming of SIPs to the hematopoietic lineage” value with SIPs [2] is recorded as “some ability to support some degree of reprogramming”.

“rhIGFII: recombinant human IGF-II medium supplement”: in the experiment with SIPs [2], the “reprogramming of SIPs to the hematopoietic lineage” value was “some ability to support some degree of reprogramming”.

Take `COc1cc2nc(N3CCCN(C)CC3)nc(NC3CCN(Cc4ccccc4)CC3)c2cc1OC` [Bix-01294]: the “expression of CD41 or CD34” value in the experiment on SIPs [1] is recorded as “did not induce significant expression”.
